Results taken from patent US12357603B2, “Acyl sulfonamides for treating cancer” (Bayer Aktiengesellschaft, priority 2019, dated 2025).

Tests used:
[1] = target: Recombinant human His-tagged Kat6a protein (amino acids 194-810) (Homo sapiens (Human), UniProt Q92794); assay: Kat6a activity assay (TR-FRET, acetylation of biotinylated Histone-H4-derived peptide); assay type: biochemical; settings: 60 mins at 22° C., read-out: KAT6A-DPF/HAT domain IC50 [mol/l] (arithmetic mean)
Procedure, shortened: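 Sf9-expressed human His-Kat6a (aa 194-810) incubated 60 min at 22 °C with compounds (0.01-20 μM) in Tris pH 8 buffer containing 220 nM biotinylated H4 peptide (aa 1-24) and 600 nM acetyl-CoA. Acetyl-K8 detected by TR-FRET (665/620 nm ratio); IC50 by four-parameter fit versus DMSO controls.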

MDA-MB-436 cells = assay: Proliferation assay MDA-MB-436, negative control cell line (Alamar Blue, 144 h); assay type: cell-based; settings: Homo sapiens, MDA-MB-436, 144 h, arithmetic mean
Procedure, shortened: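 MDA-MB-436 cells (3000/well, DMEM/Ham's F12 with 2.5% FBS) treated 24 h after plating with compounds at 2.0×10E-5 to 2.0×10E-9 M (9 dilutions, 0.2% DMSO), triplicates, 144 h at 37 °C, 5% CO2. Viability by Alamar Blue, 2 h, fluorescence at 590 nm.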

[2] = system: ESR1 transcription (luciferase signal in MVLN cells); assay: Repression of ESR1 transcription, luciferase reporter in MVLN cells; assay type: cell-based; settings: Homo sapiens, MVLN, inhibition of luciferase signal in MVLN cells; arithmetic mean
Procedure, shortened: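 MVLN cells (constitutive ER, stably carrying a Vitellogenin A2 hormone-responsive element–luciferase reporter) treated in duplicate; luciferase read after 24 h. Cell density checked by Alamar Blue fluorescence (530/590 nm) after 2 h to exclude cell-loss effects.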

ZR-75-1 cells = assay: Proliferation assay ZR-75-1 (Alamar Blue, 144 h); assay type: cell-based; settings: Homo sapiens, ZR-75-1, 144 h, arithmetic mean, read-out: ZR75-1 proliferation assay, EC50 [M] (arithmetic mean)
Procedure, shortened: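 Cells seeded at 3000/well in RPMI 1640 with 2.5% FBS and treated 24 h later across 2.0×10E-5 to 2.0×10E-9 M (9 dilutions, 0.2% DMSO, triplicate). After 144 h at 37 °C, 5% CO2, viability read by Alamar Blue fluorescence at 590 nm following 2 h reagent incubation.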

Chain of Recombinant human His-tagged Kat6a protein (amino acids 194-810) (Q92794 194-810): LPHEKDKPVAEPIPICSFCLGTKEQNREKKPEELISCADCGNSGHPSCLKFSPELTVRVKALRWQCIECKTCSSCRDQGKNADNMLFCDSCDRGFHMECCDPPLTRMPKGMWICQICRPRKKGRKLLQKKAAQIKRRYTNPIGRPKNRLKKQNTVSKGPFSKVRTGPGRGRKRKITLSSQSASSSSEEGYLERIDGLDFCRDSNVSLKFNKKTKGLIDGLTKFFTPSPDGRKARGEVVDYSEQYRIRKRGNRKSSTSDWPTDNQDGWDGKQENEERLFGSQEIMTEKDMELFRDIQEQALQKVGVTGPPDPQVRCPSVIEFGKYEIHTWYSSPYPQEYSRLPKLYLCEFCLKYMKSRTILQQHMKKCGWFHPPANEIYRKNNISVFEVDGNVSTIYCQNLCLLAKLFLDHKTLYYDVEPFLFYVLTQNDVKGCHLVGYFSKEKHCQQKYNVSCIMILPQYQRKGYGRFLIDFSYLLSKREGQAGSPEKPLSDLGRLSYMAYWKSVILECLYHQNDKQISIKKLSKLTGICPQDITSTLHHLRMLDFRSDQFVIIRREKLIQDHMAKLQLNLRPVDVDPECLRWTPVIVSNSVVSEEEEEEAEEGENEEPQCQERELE

| Structure (SMILES) | IC50 [1] [µM] | EC50 (MDA-MB-436 cells) [µM] | IC50 [2] [µM] | EC50 (ZR-75-1 cells) [M] |
| --- | --- | --- | --- | --- |
| CCOc1ccc(F)cc1S(=O)(=O)NC(=O)c1cc2ccc(N(C)C)cc2o1 [Example 173, 6-(Dimethylamino)-N-(2-ethoxy-5-fluoro-phenyl)sulfonyl-benzofuran-2-carboxamide] | 0.0973 | > 20 | 0.0674 | 1.1e-07 |
| CC(C)c1ccc(OCc2ccccc2)c(S(=O)(=O)NC(=O)c2cc3ccc(N(C)C)cc3o2)c1 [Example 176, N-(2-Benzyloxy-5-isopropyl-phenyl)sulfonyl-6-(dimethylamino)benzofuran-2-carboxamide] | 0.0128 | 19.5 | 0.0348 | 9.71e-08 |
| CC(C)c1ccc(OCC(F)(F)F)c(S(=O)(=O)NC(=O)c2cc3ccc(N(C)C)cc3o2)c1 [Example 178, 6-(Dimethylamino)-N-[5-isopropyl-2-(2,2,2-trifluoroethoxy)phenyl]sulfonyl-benzofuran-2-carboxamide] | 0.011 | > 20 | 0.0696 | 8.65e-08 |
| CC(C)Oc1ccc(C(C)(C)C)cc1S(=O)(=O)NC(=O)c1cc2ccc(N(C)C)cc2o1 [Example 183, N-((5-(tert-butyl)-2-isopropoxyphenyl)sulfonyl)-6-(dimethylamino)benzofuran-2-carboxamide] | 0.0154 | > 20 | 0.0455 | 7.53e-08 |
| Cc1ccc2cccc(S(=O)(=O)NC(=O)c3cc4cc(Cl)c(N(C)C)cc4o3)c2n1 [Example 187, 5-Chloro-6-(dimethylamino)-N-((2-methylquinolin-8-yl)sulfonyl)benzofuran-2-carboxamide] | 6.64 | > 20 | > 20 | > 2e-05 |
| CCOc1ccccc1S(=O)(=O)NC(=O)c1cc2cc(Cl)c(N(C)C)cc2o1 [Example 188, 5-Chloro-6-(dimethylamino)-N-((2-ethoxyphenyl)sulfonyl)benzofuran-2-carboxamide] | 10.3 | > 20 | > 20 | > 2e-05 |
| CN(C)c1cc2oc(C(=O)NS(=O)(=O)c3ccccc3-c3ccccc3)cc2cc1Cl [Example 189, N-([1,1′-biphenyl]-2-ylsulfonyl)-5-chloro-6-(dimethylamino)benzofuran-2-carboxamide] | 2.44 | > 20 | 6.48 | > 2e-05 |
| Cc1ccc2cccc(S(=O)(=O)NC(=O)c3cc4ccc(N(C)C)c(F)c4o3)c2n1 [Example 190, 6-(Dimethylamino)-7-fluoro-N-((2-methylquinolin-8-yl)sulfonyl)benzofuran-2-carboxamide] | 1.4 | 10.4 | 1.93 | 3.3e-06 |
| CCOc1ccccc1S(=O)(=O)NC(=O)c1cc2ccc(N(C)C)c(F)c2o1 [Example 191, 6-(Dimethylamino)-N-((2-ethoxyphenyl)sulfonyl)-7-fluorobenzofuran-2-carboxamide] | 4.7 | > 20 | 11.2 | 5.64e-06 |
| CN(C)c1ccc2cc(C(=O)NS(=O)(=O)c3ccccc3-c3ccccc3)oc2c1F [Example 192, N-([1,1′-biphenyl]-2-ylsulfonyl)-6-(dimethylamino)-7-fluorobenzofuran-2-carboxamide] | 2.98 | > 20 | 16.4 | > 2e-05 |
| CN(C)c1cc(C(F)(F)F)c2cc(C(=O)NS(=O)(=O)c3ccccc3)oc2c1 [Example 194, 6-(Dimethylamino)-N-(phenylsulfonyl)-4-(trifluoromethyl)benzofuran-2-carboxamide] | 0.0449 | > 20 | 4.09 | 1.12e-06 |
| Cc1ccc2cccc(S(=O)(=O)NC(=O)c3cc4cc(F)c(N(C)C)cc4o3)c2n1 [Example 197, 6-(Dimethylamino)-5-fluoro-N-((2-methylquinolin-8-yl)sulfonyl)benzofuran-2-carboxamide] | 0.894 | > 20 | 1.27 | 2.84e-06 |
| CCOc1ccccc1S(=O)(=O)NC(=O)c1cc2cc(F)c(N(C)C)cc2o1 [Example 198, 6-(Dimethylamino)-N-((2-ethoxyphenyl)sulfonyl)-5-fluorobenzofuran-2-carboxamide] | 4.06 | > 20 | 2.32 | 7.2e-06 |
| CN(C)c1cc2oc(C(=O)NS(=O)(=O)c3ccccc3-c3ccccc3)cc2cc1F [Example 199, N-([1,1′-biphenyl]-2-ylsulfonyl)-6-(dimethylamino)-5-fluorobenzofuran-2-carboxamide] | 2.65 | > 20 | 9.4 | > 2e-05 |
| CCOc1ccccc1S(=O)(=O)NC(=O)c1cc2cc(C)c(N(C)C)cc2o1 [Example 200, 6-(Dimethylamino)-N-(2-ethoxybenzene-1-sulfonyl)-5-methyl-1-benzofuran-2-carboxamide] | 6.74 | > 20 | > 20 | > 2e-05 |
| CN(C)c1ccc2cc(C(=O)NS(=O)(=O)c3ccccc3-c3ccccc3)oc2c1Br [Example 203, N-([1,1′-biphenyl]-2-sulfonyl)-7-bromo-6-(dimethylamino)-1-benzofuran-2-carboxamide] | 8.38 | > 20 | > 20 | > 2e-05 |
| CCOc1ccccc1S(=O)(=O)NC(=O)c1cc2cc(C#N)c(N(C)C)cc2o1 [Example 204, 5-Cyano-6-(dimethylamino)-N-(2-ethoxybenzene-1-sulfonyl)-1-benzofuran-2-carboxamide] | 2.59 | > 20 | 5.8 | 6.4e-06 |
| COCCN(C)c1ccc2cc(C(=O)NS(=O)(=O)c3cccc4ccc(C)nc34)oc2c1 [Example 205, 6-[(2-Methoxyethyl)(methyl)amino]-N-(2-methylquinoline-8-sulfonyl)-1-benzofuran-2-carboxamide] | 0.485 | 7.61 | 2.34 | 2.17e-06 |
| CN(C)c1cc2oc(C(=O)NS(=O)(=O)c3ccccc3OC3CC3)cc2cc1Br [Example 207, 5-Bromo-N-[2-(cyclopropyloxy)benzene-1-sulfonyl]-6-(dimethylamino)-1-benzofuran-2-carboxamide] | 6.81 | > 20 | 11.8 | > 2e-05 |
| CCNc1ccc2cc(C(=O)NS(=O)(=O)c3ccccc3-c3ccccc3)oc2c1 [Example 211, N-([1,1′-biphenyl]-2-sulfonyl)-6-(ethylamino)-1-benzofuran-2-carboxamide] | 0.35 | > 20 | 4.84 | 1.21e-06 |
| CCNc1ccc2cc(C(=O)NS(=O)(=O)c3ccccc3OCC)oc2c1 [Example 212, N-(2-Ethoxybenzene-1-sulfonyl)-6-(ethylamino)-1-benzofuran-2-carboxamide] | 1.13 | > 20 | 9.28 | 4.19e-06 |
| COCCN(C)c1ccc2cc(C(=O)NS(=O)(=O)c3ccc(C)cc3-c3ccccc3)oc2c1 [Example 214, 6-[(2-Methoxyethyl)(methyl)amino]-N-(5-methyl[1,1′-biphenyl]-2-sulfonyl)-1-benzofuran-2-carboxamide] | 0.732 | > 20 | 5.53 | 6.14e-06 |
